Experiments:
[1] = system: Kasumi1 AML cell line; experiment: AML cell viability, CellTiter-Glo combination matrix, Kasumi1; format: cell-based
Method: The sensitivity of AML cell lines to combinations of METTL3 inhibitor and standards of care was determined as described. Dose response curves of venetoclax were determined either alone or in the presence of different concentrations of METTL3 inhibitor that are known to be active in cells.
Synergistic interactions occur when the IC50 value decreases in the presence of METTL3 inhibitor. […] Antagonistic interactions occur when the IC50 value increases in the presence of METTL3 inhibitor.
24 h before cell treatment, homogenize, stain with Trypan blue and count viable cells using CellOMeter Auto T4. Dilute cells in media at 400 000 cells/ml to ensure an exponential growth the day after.
On treatment day, homogenize, stain with Trypan blue and count viable cells using CellOMeter Auto T4. Dilute to the proper cell seeding density according to Table 6 in cell media.
• Dispense drug (see Table 7) and METTL3 inhibitor in semi-log dose-response matrix and DMSO in 384-well plates using D300e Nanodispenser (Tecan). • 6× compound solution preparation: add 40 μL of cell medium in compound-containing plates and homogenize using the ViaFlo device (Integra) • Dispense 30 μl of cell suspension per well in three replicate 384-well white Ultra-Low-Attachment plates (Sbio) using ViaFlow device (Integra) • Transfer 6 μL of the 6× compound solution in each 30 μL cell suspension-containing plate. • Incubate at 37° C. 5% CO2 for 3 to 5 days.
• Add 35 μL CellTiter-Glo (Promega) in wells (vol/vol) using ViaFlo device (Integra). • Incubate at RT 10 min in the dark, with agitation the first minute, and read luminescence on the Ensight device (Perkin Elmer).
Raw data were converted to % viability by normalization to DMSO controls. IC50 determination was performed using GraphPad Prism and fitting curves to the standard nonlinear regression four parameter equation (Y=Bottom+(Top-Bottom)/(1+(IC50/X)^HillSlope)) least squares method, and synergy was assessed by comparison of IC50 values of the standard of care in the presence or absence of different concentrations of METTL3 inhibitor (see FIGS. 12 to 19).

[2] = system: SKOV3 human ovarian cancer cells; experiment: Tumour killing assay (TKA), SKOV3 spheroid / PBMC co-culture; format: cell-based; conditions: STM3480 0.05 micromolar, FIG. 1 and 2
Method: This experiment evaluates the effects of human donor Peripheral Blood Mononuclear Cells (PBMCs) to attack and kill fluorescently-labelled tumour cells in a co-culture assay. Briefly, test agents are incubated at different concentrations with SKOV3 human ovarian cancer cells in the presence or absence of human donor PBMCs and tumour growth is monitored continuously by real time imaging of the NucLight Red-labelled SKOV3 cells for several days.
NucLight Red (Incucyte, Essen Biosciences)-transduced SK-OV-3 (SK-OV-3-NLR) cells were transferred into Ultra-low attachment 96 well plates with spontaneous spheroid formation occurring over 48 hours. Peripheral blood mononuclear cells (PBMC) were isolated from healthy single donor buffy coats by density separation. Prior to co-culture of SK-OV-3-NLR spheroids with PBMC, SK-OV-3-NLR spheroids were treated with 10 ng/ml of interferon gamma (IFNγ). All treatments, including STM3480 and Pembrolizumab, were added at the point of co-culture in a final total volume of 200 μl/per well. Assay plates were transferred into an IncuCyte S3 and images were collected every 2 hours for 7 days. Following experimental completion, an analysis definition was applied to quantify the Total NLR Integrated Intensity present on a per well basis. Changes in spheroid size were quantified by plotting Total NLR Integrated Intensity against time.

[3] = system: EMT6 mouse breast cancer; experiment: Subcutaneous EMT6 breast cancer syngeneic model, anti-tumour efficacy; format: in vivo; conditions: 10 per group
From the text: The in vivo effect of METTL3 inhibition in combination with anti-PD1 immune checkpoint inhibitor was investigated using syngeneic mouse tumour models in immune-competent hosts. Mouse tumour models can be grown in appropriate host strains and are widely used to investigate the effects of therapeutic agents on the immune system and cancer growth. There are a limited range of mouse syngeneic tumour models available, far fewer than human cell lines, and they are widely used in the art to support potential clinical utility of immune stimulatory approaches across multiple indications. We exemplify the potential role of STM3480 and combinations with immune checkpoint inhibitors such as anti-PD-1 antibodies in multiple tumour models including A20 (murine B cell lymphoma), EMT-6 (murine breast cancer) and CT-26 (murine colorectal cancer).
The objective of this study is to assess the anti-tumour efficacy of STM3480 in combination with anti-PD1 in subcutaneous EMT6 mouse breast cancer model in female BALB/c mice.
EMT6 (#ATCC CRL-2755) mouse breast cancer cells were cultured in (Waymouth's MB 752/1 Medium with 2 mM L-glutamine, 85%; foetal bovine serum (non-heat inactivated), 15%) media. […]
Tumours were measured three times a week and tumour volumes estimated using the formula 0.5 (L×W^2) by measuring the tumour in two dimensions using electronic callipers for the duration of the study. […]

O=C(NCc1ccc2cc(CNCC3CCC3)[nH]c2c1)c1cc(=O)n2ccccc2n1 [STM3480, N-[(2-{[(cyclobutylmethyl)amino]methyl}-1H-indol-6-yl)methyl]-4-oxo-4H-pyrido[1,2-a]pyrimidine-2-carboxamide]
cell viability with increasing concentrations of METTL3 inhibitor ([1]; Kasumi1, combination with daunorubicin): dose-dependent decrease
interaction with 5′-azacitidine ([1]; Kasumi1 AML cell line): additive
interaction with cytarabine ([1]; Kasumi1 AML cell line): additive
interaction with daunorubicin ([1]; Kasumi1 AML cell line): additive
interaction with venetoclax ([1]; Kasumi1 AML cell line): synergistic
tumour viability (normalized NucLight Red [NLR] fluorescence) against time [2]: greater anti-tumour effect compared to vehicle
Mean tumour volume d21 ([3]; EMT6, female BALB/c mice, STM3480 50 mg/kg p.o., anti PD1 10 mg/kg i.p. BIW, up to 3 weeks): 141 mm3
No. mice with complete regressions ([3]; EMT6): 1

From patent US20240277715A1, “COMBINATION THERAPIES COMPRISING A METTL3 INHIBITOR AND A FURTHER ANTICANCER AGENT” (Storm Therapeutics Limited, priority 2021, published 2024)
